For orientation: inhibition means the relative decrease from the control value, in per cent. What is called % Inhibition is how much of the control response was suppressed. A high value points to strong suppression.

Structures are written as SMILES.

The target of one experiment is T1, farnesyltransferase (Rattus norvegicus, UniProt Q02293+Q04631).
T1 construct: The enzyme can be purified according to Cell, 62: 81-88 (1990), utilizing steps one, two, and three; from tissue; host or cells: rat brain
T1 sequence (Q02293 whole entry, one chain of several): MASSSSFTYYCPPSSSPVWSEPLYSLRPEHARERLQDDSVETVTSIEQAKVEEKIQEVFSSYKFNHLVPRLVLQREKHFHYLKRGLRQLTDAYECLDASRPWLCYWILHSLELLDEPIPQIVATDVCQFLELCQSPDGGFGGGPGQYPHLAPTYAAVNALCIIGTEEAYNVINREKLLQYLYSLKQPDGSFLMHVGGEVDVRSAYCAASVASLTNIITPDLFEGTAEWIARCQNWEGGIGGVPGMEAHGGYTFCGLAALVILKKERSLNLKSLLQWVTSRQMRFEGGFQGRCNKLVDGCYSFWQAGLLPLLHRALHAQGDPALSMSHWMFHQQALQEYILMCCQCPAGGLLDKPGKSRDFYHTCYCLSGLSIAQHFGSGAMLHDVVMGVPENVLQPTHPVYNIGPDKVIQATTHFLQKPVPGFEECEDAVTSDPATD
Put plainly: Inhibition of farnesyltransferase (3H-farnesyldiphosphate / H-Ras filter assay). The format is biochemical. To be noted: test compound at 10^−7 M; 3H-farnesyldiphosphate 0.6 μM, H-Ras 5.0 μM, 37° C., 30 minutes. The source says:
The ability of the compounds of the present invention to inhibit farnesyltransferase can be measured according to the method described in J. Biol. Chem., 266: 14603 (1991) or J. Biol. Chem., 270:660-664 (1995). Procedures for determination of the inhibition of farnesylation of the oncogene protein Ras are described in J. Biol. Chem., 266:15575-15578 (1991) and U.S. Pat. No. 5,245,061. Inhibition of rat brain farnesyltransferase can also be measured in vitro using an Amersham Life Science commercial scintillation proximity assay kit and substituting a biotin-K Ras B fragment (0.1 μM final concentration) for the biotin-lamin substrate provided by Amersham. The enzyme can be purified according to Cell, 62: 81-88 (1990), utilizing steps one, two, and three. […] The percent inhibition of the farnesylation caused by the compounds of the present invention (at 10^−6 M) compared to an uninhibited control sample can be evaluated in the same Amersham test system.
The mixture was brought to 37° C., treated with enzyme, incubated for 30 minutes, treated with 1 M HCl/ethanol (1 mL) to stop the reaction, stirred for 15 minutes at room temperature, diluted with ethanol (2 mL), filtered through a 2.5 cm glass microfiber filter (Whatman) with ethanol rinses (4×2 mL). The glass transferred to a scintillation vial and treated with scintillation fluid (5 mL). The radioisotope retained on the glass fiber filter was counted and reflected the activity of the enzyme.
On to `Cn1cncc1C(OCc1cnc(C#N)cc1-c1cccc(Cl)c1)c1ccc(C#N)cc1` (stereo not drawn) [Example 40, 4-(3-chlorophenyl)-5-(((4-cyanophenyl)(1-methyl-1H-imidazol-5-yl)methoxy)methyl)-2-pyridinecarbonitrile], for which the inhibition at 0.1 µM is over 83%.
Still for that read-out and setting: under `Cn1cncc1C(NC(=O)c1cn(C)c(=O)cc1-c1cccc(Cl)c1)c1ccc(C#N)cc1` (stereo not drawn) [Example 41, 4-(3-chlorophenyl)-N-((4-cyanophenyl)(1-methyl-1H-imidazol-5-yl)methyl)-1-methyl-6-oxo-1,6-dihydro-3-pyridinecarboxamide] stands 10%; under `Cn1cncc1C(OCc1cc(=O)c(C#N)cn1-c1cccc(Cl)c1)c1ccc(C#N)cc1` (stereo not drawn) [Example 42, 1-(3-chlorophenyl)-6-(((4-cyanophenyl)(1-methyl-1H-imidazol-5-yl)methoxy)methyl)-4-oxo-1,4-dihydro-3-pyridinecarbonitrile], 87%.
On the same count and under the same terms, under `Cn1cncc1C(OCc1c[nH]c(=O)cc1-c1cccc(Cl)c1)c1ccc(C#N)cc1` (stereo not drawn) [Example 44, 4-(((4-(3-chlorophenyl)-6-oxo-1,6-dihydro-3-pyridinyl)methoxy)(1-methyl-1H-imidazol-5-yl)methyl)benzonitrile] stands 89%; under `Cn1cncc1C(OCc1cn(C)c(=O)cc1-c1cccc(Cl)c1)c1ccc(C#N)cc1` (stereo not drawn) [Example 45, 4-(((4-(3-chlorophenyl)-1-methyl-6-oxo-1,6-dihydro-3-pyridinyl)methoxy)(1-methyl-1H-imidazol-5-yl)methyl)benzonitrile], 87%.
Same read-out and setting: next, `Cn1cncc1C(OCc1ccc(C#N)cc1NS(=O)(=O)c1cccs1)c1ccc(C#N)cc1` (stereo not drawn) [Example 46, N-(5-cyano-2-(((4-cyanophenyl)(1-methyl-1H-imidazol-5-yl)methoxy)methyl)phenyl)-2-thiophenesulfonamide]: 100%.
With `Cc1ccc(S(=O)(=O)Nc2cc(C#N)ccc2COC(c2ccc(C#N)cc2)c2cncn2C)cc1` (stereo not drawn) [Example 47, N-(5-cyano-2-(((4-cyanophenyl)(1-methyl-1H-imidazol-5-yl)methoxy)methyl)phenyl)-4-methylbenzenesulfonamide], the inhibition at 0.1 µM is 100%.
Consider `Cn1cncc1C(OCc1c(-c2cccc(Cl)c2)cc(C#N)c(=O)n1C)c1ccc(C#N)c(F)c1` (stereo not drawn) [Example 52, 5-(3-chlorophenyl)-6-(((4-cyano-3-fluorophenyl)(1-methyl-1H-imidazol-5-yl)methoxy)methyl)-1-methyl-2-oxo-1,2-dihydro-3-pyridinecarbonitrile], for which 0.1 µM produced 100% inhibition.
On the same count and under the same terms, next, `Cn1cncc1C(OCc1c(-c2cccc(Cl)c2)cc(C#N)c(=O)n1C)c1ccc(C#N)cc1F` (stereo not drawn) [Example 53, 5-(3-chlorophenyl)-6-(((4-cyano-2-fluorophenyl)(1-methyl-1H-imidazol-5-yl)methoxy)methyl)-1-methyl-2-oxo-1,2-dihydro-3-pyridinecarbonitrile]: 100%; `Cn1cncc1C(OCc1c(-c2cccc(Cl)c2)cc(C#N)c(=O)n1C)c1ccc(C#N)c(Cl)c1` (stereo not drawn) [Example 54, 6-(((3-chloro-4-cyanophenyl)(1-methyl-1H-imidazol-5-yl)methoxy)methyl)-5-(3-chlorophenyl)-1-methyl-2-oxo-1,2-dihydro-3-pyridinecarbonitrile]: 100%.

Staying with this experiment, now noted: test compound at 10^−8 M; 3H-farnesyldiphosphate 0.6 μM, H-Ras 5.0 μM, 37° C., 30 minutes.
Consider `Cn1cncc1C(O)(COc1ccc(C#N)cc1-c1ccc2c(c1)OCO2)c1ccc(C#N)cc1` (stereo not drawn) [Example 55, 3-(1,3-benzodioxol-5-yl)-4-(2-(4-cyanophenyl)-2-hydroxy-2-(1-methyl-1H-imidazol-5-yl)ethoxy)benzonitrile], for which the inhibition at 0.01 µM turned out to be 98%.
`Cn1cncc1C(F)(COc1ccc(C#N)cc1-c1ccc2c(c1)OCO2)c1ccc(C#N)cc1` (stereo not drawn) [Example 56, 3-(1,3-benzodioxol-5-yl)-4-(2-(4-cyanophenyl)-2-fluoro-2-(1-methyl-1H-imidazol-5-yl)ethoxy)benzonitrile]: 0.01 µM produced 97% inhibition.
Compound `COc1cccc(-c2cc(C#N)ccc2OCC(O)(c2ccc(C#N)cc2)c2cncn2C)c1` (stereo not drawn) [Example 57, 6-(2-(4-cyanophenyl)-2-hydroxy-2-(1-methyl-1H-imidazol-5-yl)ethoxy)-3′-methoxy-1,1′-biphenyl-3-carbonitrile] gave an inhibition at 0.01 µM of 98%.
The compound `Cn1cncc1C(O)(COc1ccc(C#N)cc1-c1cccc2cccnc12)c1ccc(C#N)cc1` (stereo not drawn) [Example 59, 4-(2-(4-cyanophenyl)-2-hydroxy-2-(1-methyl-1H-imidazol-5-yl)ethoxy)-3-quinolin-8-ylbenzonitrile] showed an inhibition at 0.01 µM of 83%.
The compound `Cn1cncc1C(F)(COc1ccc(C#N)cc1-c1cccc2cccnc12)c1ccc(C#N)cc1` (stereo not drawn) [Example 60, 4-(2-(4-cyanophenyl)-2-fluoro-2-(1-methyl-1H-imidazol-5-yl)ethoxy)-3-quinolin-8-ylbenzonitrile] displayed an inhibition at 0.01 µM of 73%.
For `Cn1cncc1C(O)(COc1ccc(C#N)cc1-c1ccc(F)c(F)c1)c1ccc(C#N)cc1` (stereo not drawn) [Example 61, 6-(2-(4-cyanophenyl)-2-hydroxy-2-(1-methyl-1H-imidazol-5-yl)ethoxy)-3′,4′-difluoro-1,1′-biphenyl-3-carbonitrile], the inhibition at 0.01 µM turned out to be 96%.
On to `Cn1cncc1C(F)(COc1ccc(C#N)cc1-c1ccc(F)c(F)c1)c1ccc(C#N)cc1` (stereo not drawn) [Example 62, 6-(2-(4-cyanophenyl)-2-fluoro-2-(1-methyl-1H-imidazol-5-yl)ethoxy)-3′,4′-difluoro-1,1′-biphenyl-3-carbonitrile], for which the inhibition at 0.01 µM is 93%.
In the case of `Cn1cncc1C(O)(COc1ccc(C#N)cc1-c1ccc(OC(F)(F)F)cc1)c1ccc(C#N)cc1` (stereo not drawn) [Example 63, 6-(2-(4-cyanophenyl)-2-hydroxy-2-(1-methyl-1H-imidazol-5-yl)ethoxy)-4′-(trifluoromethoxy)-1,1′-biphenyl-3-carbonitrile], the “% Inhibition at 10^−8 M” value was 97%.
Regarding `Cn1cncc1C(F)(COc1ccc(C#N)cc1-c1ccc(OC(F)(F)F)cc1)c1ccc(C#N)cc1` (stereo not drawn) [Example 64, 6-(2-(4-cyanophenyl)-2-fluoro-2-(1-methyl-1H-imidazol-5-yl)ethoxy)-4′-(trifluoromethoxy)-1,1′-biphenyl-3-carbonitrile], the inhibition at 0.01 µM came out at 90%.
The same measure, in the same setting: next, `Cn1cncc1C(F)(COc1ccc(C#N)cc1-c1ccc(F)c(Cl)c1)c1ccc(C#N)cc1` (stereo not drawn) [Example 66, 3′-chloro-6-(2-(4-cyanophenyl)-2-fluoro-2-(1-methyl-1H-imidazol-5-yl)ethoxy)-4′-fluoro-1,1′-biphenyl-3-carbonitrile]: 93%; `Cn1cncc1C(O)(COc1ccc(C#N)cc1-c1cc(F)cc(F)c1)c1ccc(C#N)cc1` (stereo not drawn) [Example 67, 6-(2-(4-cyanophenyl)-2-hydroxy-2-(1-methyl-1H-imidazol-5-yl)ethoxy)-3′,5′-difluoro-1,1′-biphenyl-3-carbonitrile]: 94%; `Cn1cncc1C(F)(COc1ccc(C#N)cc1-c1cc(F)cc(F)c1)c1ccc(C#N)cc1` (stereo not drawn) [Example 68, 6-(2-(4-cyanophenyl)-2-fluoro-2-(1-methyl-1H-imidazol-5-yl)ethoxy)-3′,5′-difluoro-1,1′-biphenyl-3-carbonitrile]: 91%.
The same measure, in the same setting: next, `Cn1cncc1C(O)(COc1ccc(C#N)cc1-c1cccc(OC(F)(F)F)c1)c1ccc(C#N)cc1` (stereo not drawn) [Example 69, 6-(2-(4-cyanophenyl)-2-hydroxy-2-(1-methyl-1H-imidazol-5-yl)ethoxy)-3′-(trifluoromethoxy)-1,1′-biphenyl-3-carbonitrile]: 95%.
Same read-out and setting: under `Cn1cncc1C(F)(COc1ccc(C#N)cc1-c1cccc(OC(F)(F)F)c1)c1ccc(C#N)cc1` (stereo not drawn) [Example 70, 6-(2-(4-cyanophenyl)-2-fluoro-2-(1-methyl-1H-imidazol-5-yl)ethoxy)-3′-(trifluoromethoxy)-1,1′-biphenyl-3-carbonitrile] stands 94%; under `Cn1cncc1C(O)(COc1ccc(C#N)cc1-c1ccc(Cl)c(Cl)c1)c1ccc(C#N)cc1` (stereo not drawn) [Example 71, 3′,4′-dichloro-6-(2-(4-cyanophenyl)-2-hydroxy-2-(1-methyl-1H-imidazol-5-yl)ethoxy)-1,1′-biphenyl-3-carbonitrile], 97%; under `Cn1cncc1C(F)(COc1ccc(C#N)cc1-c1ccc(Cl)c(Cl)c1)c1ccc(C#N)cc1` (stereo not drawn) [Example 72, 3′,4′-dichloro-6-(2-(4-cyanophenyl)-2-fluoro-2-(1-methyl-1H-imidazol-5-yl)ethoxy)-1,1′-biphenyl-3-carbonitrile], 94%.

The same experiment, now with this note: test compound at 10^−9 M (stated in the cell); 3H-farnesyldiphosphate 0.6 μM, H-Ras 5.0 μM, 37° C., 30 minutes.
In turn, `Cn1cncc1C(O)(COc1ccc(C#N)cc1-c1ccc(F)c(Cl)c1)c1ccc(C#N)cc1` (stereo not drawn) [Example 65, 3′-chloro-6-(2-(4-cyanophenyl)-2-hydroxy-2-(1-methyl-1H-imidazol-5-yl)ethoxy)4′-fluoro-1,1′-biphenyl-3-carbonitrile] yielded an inhibition at 0.001 µM of 75%.

For the origin of these results see US20020115640A1, “Farnesyltransferase inhibitors” (priority 2000, published 2002).
